Assay results: ChEMBL document CHEMBL3507680, “University of Dundee, Gates Library screen for HepG2 cell viability”

test: Human HepG2 cell viability assay in 384 well format; format: toxicity, cell-based; set-up: dose 125 nL, time 70.5 hour; cytotoxicity at 70.5 h: concentration not given beside the values; conditions: HepG2 cells, read-out: Inhibition

SMILES	cytotoxicity at 70.5 h [%]
Cc1nc(C(=O)N2CCCC2c2c(C)nn(C)c2C)ccc1C#N (stereo not drawn)	-7.57
O=C(CCn1ccc2cc(Br)ccc21)NC[C@@H]1CCCN2CCCC[C@H]12	19.3
COCCCC1(C(=O)O)CCCN(C(=O)c2ccc(C(C)C)[nH]c2=O)C1 (stereo not drawn)	-5.84
CSc1ncc(CN(C)C(C)c2cccnc2)cn1 (stereo not drawn)	-0.91
Cc1cccc(-c2noc(CN3CCCC(Cn4cncn4)C3)n2)c1 (stereo not drawn)	35.6
Cn1cnc2cc(C(=O)N3CCN(CCO)[C@@H]4CS(=O)(=O)C[C@@H]43)ccc21	-0.937
O=c1[nH]c(-c2ccncc2)ncc1-c1ccnc(NC2CCCCC2)n1	18.2
NS(=O)(=O)N1CCc2ccc(NC(=O)CCc3ccncc3)cc21	22.2
Cc1c[nH]c(CN(C)C(=O)[C@@]23CNC[C@@H]2CN(c2ncccn2)C3)n1	-14
Cc1ccsc1C(=O)NC(C)c1ccc2c(c1)CCC(=O)N2 (stereo not drawn)	-1.83
N#Cc1cccc(S(=O)(=O)N2CC(CC(=O)O)c3ccccc32)c1 (stereo not drawn)	-4.94
Cn1cc(C(=O)N2CC[C@@H]3[C@@H]2CCN3c2ncc(F)cn2)cn1	-5.7
CCc1ncc(CN2CCC(O)(c3ccccc3F)CC2)cn1	-4.61
Cn1ncc2c(NC3CN4CCC3CC4)nc(-c3ccncc3)nc21 (stereo not drawn)	12
CSc1ccc(C(=O)N(c2ccc(F)cn2)C2CCOCC2)o1	30.2
O=C(c1ncncc1Cl)N1CCN(c2ccc(Cl)cc2)CC1	-8.8
CN(C)C(=O)N1C[C@@H]2CC[C@H](C1)N(C/C=C/c1ccc(F)cc1)C2	-9.21
CC(C)C[C@@H](N)C(=O)N(C)Cc1csc(C(C)C)n1	2.05
CCc1cc2c(N3CCCC(c4cc(C(N)=O)[nH]n4)C3)ncnc2s1 (stereo not drawn)	-4.85
Cc1noc([C@H]2C[C@@H]3CCN(CC4CCOCC4)C[C@H]3O2)n1	-1.09
COCC1CN(C(=O)COc2ccccc2C)Cc2ncn(C)c21 (stereo not drawn)	-4.45
O=C(Nc1ccc(N2CCCC2)nc1)N1CCc2sccc2C1	15.9
COc1ccc(C(CNS(=O)(=O)c2cn(C)nc2C)N2CCCC2)cc1 (stereo not drawn)	26.7

SMILES	cytotoxicity at 70.5 h [%]
CCNC(=O)[C@@H]1C[C@@H](N)CN1C(=O)c1[nH]c2ccccc2c1CC	18
CNc1ncccc1CN1CCN(C)CC(C(N)=O)C1 (stereo not drawn)	25.3
CC(C)(C)c1ccc(OCC(N)=O)c(CN2C[C@H]3C[C@H](O)C[C@H]3C2)c1	-7.47
CCc1n[nH]c(C2CN(C(=O)c3ccc(Cl)cn3)CCO2)n1 (stereo not drawn)	-8.84
CC(Cn1cccn1)NCC(=O)NCCc1cccs1 (stereo not drawn)	-4.39
O=C(c1cccnc1-n1cncn1)N1CCN(c2ccccc2)CC1	-8.14
CCS(=O)(=O)N1C[C@@H](c2ccccc2)[C@@]2(CCNC2=O)C1	-4.06
CC(C)C(N)CNS(=O)(=O)Cc1cccc2cccnc12 (stereo not drawn)	-7.49
Cn1cnnc1SCc1cc2c(cc1Cl)OCO2	-20.6
Cc1cc2c(N3CCCC(OCc4cccnc4)C3)ncnc2s1 (stereo not drawn)	-9.75
CS(=O)(=O)NCc1n[nH]c2c1CCN(C(=O)c1ccsc1)C2	30.1
CC(C)c1nc(CN2CCc3onc(-c4cccc(F)c4)c3C2)no1	-8.91
Cc1cc(CC2COCCN(CCc3ccccc3)C2)ncn1 (stereo not drawn)	17.8
CN(C)CCCn1ccnc1C1CCCN(c2cc(N)ncn2)C1 (stereo not drawn)	-4.4
CCn1cc(CN(C)S(=O)(=O)c2ccc(C)c(C)c2)cn1	0.0869
N#Cc1cccc(NC(=O)CCn2nc(-c3cccs3)oc2=O)c1	-11
Cc1noc(C)c1CN1C[C@H](OCC2CCN(C)CC2)[C@H]2COC[C@H]21	30.4
CCCSCC(=O)NCc1cccc(CN(C)CC)c1	-9.96
O=C(Cc1cc(F)cc(Cl)c1)N[C@@H]1CCNC[C@H]1O	-5.4
COc1ccnc(N(C)Cc2ccccc2O)n1	1.42
CC(C)(O)CN1CCN(C(=O)C2CSc3ccccc3O2)CC1 (stereo not drawn)	-14.7
COCC(C)NC(=O)CN1CCC2(CC1)OCCO2 (stereo not drawn)	-3.81
Cc1ccc(-c2cc(-c3c(C)nn(CCO)c3C)c(C#N)c(N)n2)cc1	0.809

SMILES	cytotoxicity at 70.5 h [%]
Cn1cc(CN2CC[C@H]3OCC[C@@H](C(=O)NC4CCCC4)[C@@H]3C2)cn1	-17.5
CCOC(C)c1nc(Cn2cccn2)cs1 (stereo not drawn)	-8.39
Cc1cnn(CC2CCN(CC(O)c3ccccc3Cl)CC2)c1 (stereo not drawn)	-3.1
CC(C)N1CCC(c2n[nH]cc2-c2ccnc(N)c2)C1 (stereo not drawn)	2.17
CCn1nc(C)c2ncnc(NCCN3CCOCC3)c21	-3.9
Cc1cc(C(F)(F)F)nc(CNc2nc(C)nc3c2cnn3C)n1	-7.38
CC1CCCN(C(=O)c2cn(-c3ccc(C(F)(F)F)cn3)nn2)C1 (stereo not drawn)	12.2
Cc1ccc(C(CNC(=O)c2c(C)noc2C(C)C)N(C)C)cc1 (stereo not drawn)	-4.44
Cc1cc(C(N)=O)nc(C2(C)CCCN2Cc2cnn(C)c2C)n1 (stereo not drawn)	-0.0176
c1cc(N2CCCCC2)ccc1-c1noc(CN2CCOCC2)n1	-0.0335
CC(O)CN1CCC(CNCc2ccccc2Br)CC1 (stereo not drawn)	-1.26
Cc1ccc2c(C(=O)N(C)C)cc(-c3cnn(CCO)c3)nc2c1C	-3.4
Cc1noc(Cl)c1CC(=O)N1CCCC1Cn1cccn1 (stereo not drawn)	2.85
CC(=O)N1CCC(NC(=O)NCc2ncc(-c3ccccc3)o2)CC1	-3.53
COCC1Cn2nnc(-c3cnn(C)c3)c2CN1Cc1ccco1 (stereo not drawn)	5.04
CC(C(=O)NCCc1cccs1)N1CCC(n2ccnc2)CC1 (stereo not drawn)	-1.16
CSc1ncc(C(=O)NCCn2nccc2C)cn1	-2.28
COCCN1CCC(CN(C)c2nc3c(s2)c(C)nn3C)CC1	13.5
O=C(CSCc1ccncc1)N(Cc1ccsc1)C1CC1	0.347
O=C(c1ccccn1)N1CCCC(c2ncncc2-c2ccncc2)C1 (stereo not drawn)	-9.39
CC(O)(CNc1ccccn1)c1ccccc1 (stereo not drawn)	19.5
O=C(NCC1CC1)[C@H]1C[C@@H]2CN(C(=O)NCC3CCCCC3)C[C@H]1O2	30.6
CN(C(=O)Cn1nc(-c2cccs2)ccc1=O)C1CCS(=O)(=O)C1 (stereo not drawn)	11.2

SMILES	cytotoxicity at 70.5 h [%]
Cc1cc(NC(C)c2csc(C)n2)n2nc(C)c(C)c2n1 (stereo not drawn)	5.97
COCCN1CCCN(C(=O)NC(C)Cn2ccnc2)CC1 (stereo not drawn)	2.76
OC(CNCc1nnc2ccccn12)c1ccc2c(c1)OCO2 (stereo not drawn)	-8
CC(C)Cc1cc(NC(=O)c2cc(Cl)c[nH]2)n(C)n1	-8.43
Cc1cccc(CN2CCCC3(CCC(=O)N3CCN(C)C)CC2)n1 (stereo not drawn)	-3.65
COc1ccc(N2Cc3nc(N)ncc3C2=O)cc1	9.83
CC(C)N(C)Cc1cnc2n1CCN(C(=O)c1cccs1)C2	-15.9
Cc1ccccc1C(CC(=O)NCc1n[nH]c(N)n1)c1ccccc1 (stereo not drawn)	-4.71
CC(C)N(C)Cc1cncc2c1CCN(CC1CC1)C2	15.2
O=C1CCCCN1CCC(=O)N1CCCCC1c1ccc(F)cc1 (stereo not drawn)	-6.63
CSCCC(C)NC(=O)c1cccc(-c2n[nH]c(C)n2)c1 (stereo not drawn)	-6.77
Cc1ncc(C(=O)NC2CCN(CCOc3ccc(Br)cc3)CC2)s1	-4.58
CN(Cc1nccn1C)CC1CCOc2ccccc2C1 (stereo not drawn)	22.3
CC(C)N1CCC(C(=O)N2CCCN(c3ccccc3)CC2)CC1	-8.78
O=C(Cc1csc(N2CCNC2=O)n1)NC1(c2ccccc2)CCC1	-8.91
COCCOc1ccc(Cl)c(C(=O)N2CCN(CCO)CC2)n1	-2.95
Cc1cc(N2CCC(O)(CN(C)C(=O)CCN)CC2)c2cnccc2n1	-5.17
Cc1nc(CN2CCOC3(CCCN(c4nccs4)C3)C2)cs1 (stereo not drawn)	4.12
CC(NC1CCCC1)c1ccccc1-n1cccn1 (stereo not drawn)	-6.22
CC(C)Cc1noc(CN2CCN(C(=O)c3cccs3)CC2)n1	-11.2
CSCC(C)(O)CNc1ncccc1I (stereo not drawn)	7.7
c1ccc2sc(CN3CCOC(Cn4cncn4)C3)nc2c1 (stereo not drawn)	-4.62
Cc1cc(C)nc(NCCC(=O)NCCn2ccnc2C)n1	3.01

SMILES	cytotoxicity at 70.5 h [%]
Cn1cc(C(=O)N2CCN(c3ccc(F)cc3)CC2)ccc1=O	2.77
CCCc1cc(C(=O)N[C@@H]2CCC[C@@H](N3CCCC3)[C@@H]2O)no1	-4
Cc1ccc2nc(C(=O)N3CC(c4cccnc4)C3)cn2c1	-6.09
CCN(CC)C1CCN(C(=O)NCc2cccc(-n3cccn3)c2)C1 (stereo not drawn)	-8.43
CCn1c(CN(C)C(=O)c2ccc(OC)nc2)nc2ccccc21	-11.7
COc1ccccc1N1CCN(Cc2nc(C)c(C)o2)CC1	-8.1
Cc1nnc(Nc2cccc(C3CCCN(Cc4ncc[nH]4)C3)n2)s1 (stereo not drawn)	14
O=C(NCCCO)c1cc(-c2ccc3c(c2)CCO3)n[nH]1	14.5
Cc1ccccc1CNC(=O)C1CCN(Cc2nccn2C)CC1	-0.376
Cc1c[nH]c(CN2CCCCC2CCc2cccc(O)c2)c(C)c1=O (stereo not drawn)	-5.58
COc1ccc(CNC(=O)c2ccc(Br)cn2)cc1	13.3
Cc1ccc(C(=O)N2CCC(O)(CN3CCc4ccccc4C3)C2)s1 (stereo not drawn)	-2.78
Cc1nc(CN2CCC23CCN(C(=O)c2ccco2)CC3)cs1	-1.36
CC(=O)NCCNCC1(O)CCCN(CCC2CCCCC2)C1=O (stereo not drawn)	-1.79
Cc1nc(N2CCCC2)nc2c1CCN(C(=O)CC1CCCC1)CC2	-9.31
CCOn1c(SC(C)C)nc2ccccc2c1=O	-8.12
COCCCC1(CO)CCCN(C(=O)c2cnc(C3CC3)nc2)C1 (stereo not drawn)	-4.81
CCN1CCCC1CNC(=O)Cc1c(C)n[nH]c1-c1ccc(F)cc1 (stereo not drawn)	22.5
CN(CC(=O)NC(Cc1ccccc1)C1CCCC1)S(C)(=O)=O (stereo not drawn)	-3.31
CC(C)(C)c1nnc(CN2CCCC2c2noc(C3CC3)n2)o1 (stereo not drawn)	-8.8
CCN(C(C)=O)C(c1cccnc1)c1cc(C)cc(C)c1 (stereo not drawn)	6.16
